In publication PMC12027554, “Inhibition of ABCG2 by SCO-101 Enhances Chemotherapy Efficacy in Cancer” (International Journal of Molecular Sciences, 2025):

What was measured:
HT29SN-38 cells [1] = assay: 3H-SN-38 uptake in cell monolayers; format: cell-based, human; details: HT29SN-38 monolayers; for cellular accumulation of 3H-SN-38: SCO-101 25 µM, Ko-143 0.5 µM, ZSQ 0.5 µM, vs control (HBSS)
Description: Cells were seeded at a density of 1.8 × 10^4 cells/well in 96-well plates and sub-cultured for 48 h. Drugs were dissolved in HBSS transport buffer (HBSS, 0.05% BSA, 10 mM HEPES, pH 7.4) at different concentrations. All treatments were investigated in technical triplicates. On the day of the experiments, the culture medium was exchanged with 100 μL transport buffer and cells incubated for 15 min at 37 °C. Next, the blank transport buffer was exchanged with 50 μL transport buffer containing the different compounds (2X of final concentrations) and incubated for an additional 15 min at 37 °C. The uptake experiment was started by adding 50 μL of 2 μCi/mL ^3H-SN38 and stopped after 15 min of incubation at 37 °C by removing the transport buffer from all wells. Cell monolayers were washed twice by adding/removing ice-cold transport buffer and lysed for 15 min at RT in 100 μL 0.1% TritonX-100. Cell lysates were transferred to scintillation vials containing 2 mL of scintillation fluid (Ultima Gold, PerkinElmer). Each well was washed with 100 μL purified water (milliQ), which was also transferred to respective scintillation vials. The radioactivity in each scintillation vial was measured by means of scintillation counting (Tri-Carb 2910 TR, PerkinElmer, Waltham, MA, USA).

HT29PAR cells [2] = assay: Cellular dye efflux assay (Hoechst 33342), parental cells; format: cell-based, human; details: SCO-101 20 µM, Ko-143 1 µM
Description: (§1) Twenty-four hours before the experiments, cells were seeded into 96-well Nunclon^TM plates at a density of 6000 (HT29), 7000 (PANC-1) or 8000 (LoVo) cells/well. The following day, cells were treated in triplicate with the relevant drugs at the indicated concentrations for 1 h. Next, 5 μg/mL Hoechst 33342 was added to the wells, and plates incubated at 37 °C for 30 min^−1 h. Cells were washed with cold PBS, treatments re-added and plates re-incubated at 37 °C for 30 min to 1 h. Plates were analyzed using a Celigo® (Nexcelom Bioscience, Lawrence, MA, USA) imaging cytometer. Data are expressed as percentages of fluorescence intensity, calculated through the following formula: % fluorescence intensity=Mean fluorescence intensity of sample/Mean fluorescence intensity of parental control×100
(§2) Fluorescent images were captured with an Olympus® IX71/TH4-200 microscope equipped with an Olympus® DP72 camera (Shinjuku, Tokyo, Japan), and cells were seeded at a 1.5 × 10^5 cells/well density and treated as described above.

HT29SN-38 cells [3] = assay: Cellular dye efflux assay (Hoechst 33342), resistant cells; format: cell-based, human; details: SCO-101 20 µM, Ko-143 1 µM, PSC833 1 µM
Description: as §1, §2

HT29SN-38 cells [4] = assay: Cell viability assay (MTT / CCK-8), SN-38-resistant HT29; format: cell-based, human
Description: (§3) Cells were seeded at a density of 0.2–1 × 10^4 cells/well into 96-well plates. One day after seeding, treatments were performed in triplicate for 72 h, or as otherwise indicated in the relevant panel/figure legend and kept at 37 °C/5% CO2. Growth medium alone (“untreated” cells) or DMSO was used as a control.
(§4) For MTT assays, media were replaced at the final timepoint with 100 μL of 1:10 MTT reagent (0.5 mg/mL in PBS) diluted in growth medium, and plates were incubated for 3 h. A total of 100 μL/well of stop buffer (50 g Sodium Dodecyl Sulfate, 245 mL ddH2O, 5 mL 1N HCl) was added and plates incubated for 24 h to let colored formazan crystals develop. Optical densities (ODs) were measured with a PowerWave^TM Microplate spectrophotometer (BioTek, Winooski, VT, USA) at 570 nm and 670 nm (background).
(§5) For CCK-8 assays, 100 μL of 1:10 CCK-8 reagent (pevonedistat-treated HT29 cells) diluted in medium was added to each well and cells incubated for 1–2 h at 37 °C. OD values were measured at 450 nm with a VersaMax microplate spectrophotometer (Molecular Devices, San Jose, CA, USA).
(§6) Background values were subtracted prior to further analysis. The percentage of cell viability was expressed as relative values versus untreated cells as determined by the various assays. EC50/IC50 values were calculated using GraphPad Prism (v10.4.1) and the in-built non-linear regression [log (inhibitor) vs. response—variable slope (four parameters)] calculation. For determination of synergy scores, the online tool SynergyFinder+ (https://synergyfinder.org access date 15 February 2025) was employed following 4 × 4- or 6 × 6-matrix dose-escalation cell viability experiments. Doses of drugs are indicated in the relevant figure legends and ranges have been chosen based on the response of cells to single-drug dose-dependent experiments. Synergy scores were calculated using the ZIP model, which takes the advantages of both the Loewe additivity and the Bliss independence models, aiming at a systematic assessment of various types of drug interaction patterns that may arise in a high-throughput drug combination screening.

HL-60ABCG2 cells = assay: Cell viability assay, ABCG2-expressing HL-60; format: cell-based; details: Homo sapiens, 96 h
Description: as §3, §6

HT29PAR cells [5] = assay: Cell viability assay (MTT / CCK-8), drug-sensitive HT29; format: cell-based, human
Description: as §3, §4, §5, §6

HL-60PAR cells = assay: Cell viability assay, HL-60 parental; format: cell-based; details: Homo sapiens, 96 h
Description: as §3, §6

O[C@@H](COc1cccc2ncccc12)CN1CCN([C@@H]2c3ccccc3[C@@H]3[C@H](c4ccccc42)C3(F)F)CC1 [ZSQ]
cellular accumulation of 3H-SN-38 (HT29SN-38 cells [1]): did not alter

COc1ccc2c3c([nH]c2c1)[C@H](CC(C)C)N1C(=O)[C@H](CCC(=O)OC(C)(C)C)NC(=O)[C@@H]1C3 [Ko-143]
cellular accumulation of 3H-SN-38 (HT29SN-38 cells [1]): increased | EC50 (HT29SN-38 cells [1]; read-out: EC50, 3H-SN-38 uptake (regarded as IC50 of ABCG2 inhibition)): 0.07 µM | H33342 dye accumulation (HT29PAR cells [2]): No change | H33342 dye accumulation (HT29SN-38 cells [3]): restored

NS(=O)(=O)OC[C@@H]1C[C@@H](n2ccc3c(N[C@H]4CCc5ccccc54)ncnc32)C[C@@H]1O [pevonedistat]
IC50 (HT29SN-38 cells [4]; Homo sapiens, HT-29, 72 h): 3.23 µM | IC50 (HL-60ABCG2 cells): > 1 µM | IC50 (HT29PAR cells [5]; Homo sapiens, HT-29, 72 h): 0.13 µM | IC50 (HL-60PAR cells): 0.0054 µM

O=C1c2c(O)ccc(O)c2C(=O)c2c(NCCNCCO)ccc(NCCNCCO)c21 [mitoxantrone]
IC50 (HL-60ABCG2 cells): 0.58 µM | IC50 (HL-60PAR cells): 0.04 µM

CC[C@@]1(O)C(=O)OCc2c1cc1n(c2=O)Cc2cc3c(CN(C)C)c(O)ccc3nc2-1 [topotecan]
IC50 (HT29SN-38 cells [4]; Homo sapiens, HT-29, 72 h): 1.36 µM | IC50 (HL-60ABCG2 cells): > 1 µM | IC50 (HT29PAR cells [5]; Homo sapiens, HT-29, 72 h): 0.06 µM

C/C=C/C[C@@H](C)C(=O)[C@H]1C(=O)N[C@@H](C(C)C)C(=O)N(C)CC(=O)N(C)[C@@H](CC(C)C)C(=O)N[C@@H](C(C)C)C(=O)N(C)[C@@H](CC(C)C)C(=O)N[C@@H](C)C(=O)N[C@H](C)C(=O)N(C)[C@@H](CC(C)C)C(=O)N(C)[C@@H](CC(C)C)C(=O)N(C)[C@@H](C(C)C)C(=O)N1C [PSC833]
H33342 dye accumulation (HT29SN-38 cells [3]): No change

CCc1c2c(nc3ccc(O)cc13)-c1cc3c(c(=O)n1C2)COC(=O)[C@]3(O)CC [SN-38, reference compound]
IC50 (HT29SN-38 cells [4]; 72 h): 7.29 µM | cell viability after 24 h single treatment and drug washout (HT29SN-38 cells [4]; SCO-101 15 μM or SN-38 0.5 μM alone, washout 48 h or 120 h): did not affect cell viability | IC50 (HT29PAR cells [5]; 72 h): 0.16 µM
